Species on record: Rattus norvegicus
Assay: Open TG-GATES - Regimen: Single
Type: toxicity, organism-based, Sprague-Dawley
Parameters: regimen Single, gender Male, age 6 weeks
Conditions: in vivo, po, 150 mg/kg, route gavage, dose level High; for APTT / Bas / Eos / Fbg / Hb / Ht / Lym / MCH / MCHC / MCV / Mono / Neu / PT / Plat / RBC / Ret / WBC: tissue Blood; for KIDNEY_L / KIDNEY_R / KIDNEY_TOTAL: tissue Kidney; for LIVER: tissue Liver; for ALP / ALT / AST / BUN / CRE / Ca / DBIL / GLC / K / LDH / Na / PL / RALB / TBIL / TC / TG / TP / gamma-GTP / IP: tissue Plasma

Work on Oc1ncnc2[nH]ncc12 [ALLOPURINOL] yielded an APTT (3 h) of 16.8 s, a Bas (3 h) of 0% and an Eos (3 h) of 0.8%. It also gave a Fbg (3 h) of 220.2 mg/dL, a Hb (3 h) of 13.9 g/dL and a Ht (3 h) of 41.3%. It also gave a Lym (3 h) of 75%, an MCH (3 h) of 21.7 pg and an MCHC (3 h) of 33.6%. The MCV (3 h) was 64.6 fL, the Mono (3 h) was 10% and the Neu (3 h) was 14%. For the same compound, the PT (3 h) was 12.4 s, the Plat (3 h) was 112 x10_4/uL and the RBC (3 h) was 640.6 x10_4/ul. For the same compound, the Ret (3 h) was 8.1%, the WBC (3 h) was 82 x10_2/uL and the KIDNEY_L (3 h) was 1.1 g. It also gave a KIDNEY_R (3 h) of 1.1 g, a KIDNEY_TOTAL (3 h) of 2.2 g and an LIVER (3 h) of 9.9 g. It also gave an ALP (3 h) of 830.8 IU/L, an ALT (3 h) of 34.6 IU/L and an AST (3 h) of 63.8 IU/L. The BUN (3 h) was 13 mg/dL, the CRE (3 h) was 0.5 mg/dL and the Ca (3 h) was 11.1 mg/dL. For the same compound, the DBIL (3 h) was 0.046 mg/dL, the GLC (3 h) was 191.8 mg/dL and the K (3 h) was 4.7 meq/L. For the same compound, the LDH (3 h) was 160.4 IU/L, the Na (3 h) was 140.2 meq/L and the PL (3 h) was 129.8 mg/dL. The RALB (3 h) was 3.8 g/dL, the TBIL (3 h) was 0.4 mg/dL and the TC (3 h) was 75.8 mg/dL. It also gave a TG (3 h) of 36.6 mg/dL, a TP (3 h) of 5.6 g/dL and a gamma-GTP (3 h) of 1.6 IU/L. It also gave a TERMINAL_BW (6 h) of 208.4 g, an APTT (6 h) of 16.2 s and a Bas (6 h) of 0%. For the same compound, the Eos (6 h) was 0.6%, the Fbg (6 h) was 227.4 mg/dL and the Hb (6 h) was 14.1 g/dL. For the same compound, the Ht (6 h) was 42.2%, the Lym (6 h) was 64.8% and the MCH (6 h) was 21.8 pg. The MCHC (6 h) was 33.5%, the MCV (6 h) was 65.1 fL and the Mono (6 h) was 6.6%. It also gave a Neu (6 h) of 28%, a PT (6 h) of 12.3 s and an RBC (6 h) of 648.6 x10_4/ul. It also gave a Ret (6 h) of 7.8%, a WBC (6 h) of 115.3 x10_2/uL and a KIDNEY_L (6 h) of 1 g. It also gave a KIDNEY_R (6 h) of 1 g, a KIDNEY_TOTAL (6 h) of 2.1 g and an LIVER (6 h) of 9.5 g. For the same compound, the ALP (6 h) was 1127.2 IU/L, the ALT (6 h) was 29 IU/L and the AST (6 h) was 61.6 IU/L. The BUN (6 h) was 16.2 mg/dL, the CRE (6 h) was 0.5 mg/dL and the Ca (6 h) was 11.6 mg/dL. The DBIL (6 h) was 0.016 mg/dL, the GLC (6 h) was 191.6 mg/dL and the K (6 h) was 4.9 meq/L. For the same compound, the LDH (6 h) was 149 IU/L, the Na (6 h) was 140.8 meq/L and the PL (6 h) was 134.6 mg/dL. For the same compound, the RALB (6 h) was 3.9 g/dL, the TBIL (6 h) was 0.3 mg/dL and the TC (6 h) was 72 mg/dL. For the same compound, the TG (6 h) was 47 mg/dL, the TP (6 h) was 5.7 g/dL and the gamma-GTP (6 h) was 0.8 IU/L. It also gave a TERMINAL_BW (9 h) of 205 g, an APTT (9 h) of 16.9 s and a Bas (9 h) of 0%. It also gave an Eos (9 h) of 0.8%, a Fbg (9 h) of 230.2 mg/dL and a Hb (9 h) of 14.1 g/dL. It also gave a Ht (9 h) of 42.1%, a Lym (9 h) of 65.4% and an MCH (9 h) of 21.4 pg. The MCHC (9 h) was 33.6%, the MCV (9 h) was 63.6 fL and the Mono (9 h) was 5.4%. For the same compound, the Neu (9 h) was 28.6%, the PT (9 h) was 12.3 s and the Plat (9 h) was 110.4 x10_4/uL. It also gave an RBC (9 h) of 662.2 x10_4/ul, a Ret (9 h) of 8.1% and a WBC (9 h) of 82.6 x10_2/uL. The KIDNEY_L (9 h) was 1.1 g, the KIDNEY_R (9 h) was 1.1 g and the KIDNEY_TOTAL (9 h) was 2.2 g. The LIVER (9 h) was 9 g, the ALP (9 h) was 832.2 IU/L and the ALT (9 h) was 26 IU/L. The AST (9 h) was 62.2 IU/L, the BUN (9 h) was 18.8 mg/dL and the CRE (9 h) was 0.5 mg/dL. It also gave a Ca (9 h) of 11.1 mg/dL, a DBIL (9 h) of 0.028 mg/dL and a GLC (9 h) of 199.2 mg/dL. For the same compound, the IP (9 h) was 11.6 mg/dL, the K (9 h) was 4.7 meq/L and the LDH (9 h) was 162.2 IU/L. It also gave a Na (9 h) of 140.4 meq/L, a PL (9 h) of 151 mg/dL and an RALB (9 h) of 3.9 g/dL. For the same compound, the TBIL (9 h) was 0.4 mg/dL, the TC (9 h) was 80 mg/dL and the TG (9 h) was 53 mg/dL. The TP (9 h) was 5.9 g/dL, the gamma-GTP (9 h) was 1.8 IU/L and the TERMINAL_BW (24 h) was 220.7 g. The APTT (24 h) was 16.2 s, the Bas (24 h) was 0% and the Eos (24 h) was 1.2%. For the same compound, the Fbg (24 h) was 319.8 mg/dL, the Hb (24 h) was 13.8 g/dL and the Ht (24 h) was 41%. For the same compound, the Lym (24 h) was 70.6%, the MCH (24 h) was 21.9 pg and the MCHC (24 h) was 33.6%. The MCV (24 h) was 65.1 fL, the Mono (24 h) was 9.8% and the Neu (24 h) was 18.2%. The PT (24 h) was 12.1 s, the Plat (24 h) was 118.1 x10_4/uL and the RBC (24 h) was 629.4 x10_4/ul. The Ret (24 h) was 7.5%, the WBC (24 h) was 99.2 x10_2/uL and the KIDNEY_L (24 h) was 1.2 g. For the same compound, the KIDNEY_R (24 h) was 1.3 g, the KIDNEY_TOTAL (24 h) was 2.5 g and the ALP (24 h) was 923.6 IU/L. It also gave an ALT (24 h) of 28.4 IU/L, an AST (24 h) of 61.8 IU/L and a BUN (24 h) of 24.8 mg/dL. For the same compound, the CRE (24 h) was 0.6 mg/dL, the Ca (24 h) was 11.2 mg/dL and the DBIL (24 h) was 0.048 mg/dL. For the same compound, the GLC (24 h) was 196 mg/dL, the IP (24 h) was 9 mg/dL and the K (24 h) was 4.7 meq/L. For the same compound, the LDH (24 h) was 157 IU/L, the Na (24 h) was 139.8 meq/L and the PL (24 h) was 159.6 mg/dL. The RALB (24 h) was 3.8 g/dL, the TBIL (24 h) was 0.3 mg/dL and the TC (24 h) was 90.6 mg/dL. For the same compound, the TG (24 h) was 87.2 mg/dL, the TP (24 h) was 6 g/dL and the gamma-GTP (24 h) was 2 IU/L.
